The supplement of paper PMC13207355
Where a name gives a salt, the structure may show the parent alone.

Tests used:
Conditions in all cases: exposure time: 72 h
E13 [1] = patient-derived glioblastoma stem cells of classical subtype; assay: surviving fraction (nuclei count normalised to DMSO); higher = more cells surviving (less toxic)
E21 [2] = patient-derived glioblastoma stem cells of mesenchymal subtype; assay: as above
E28 [3] = patient-derived glioblastoma stem cells of classical subtype; assay: as above
E31 [4] = patient-derived glioblastoma stem cells of proneural subtype; assay: as above
E34 [5] = patient-derived glioblastoma stem cells of proneural subtype; assay: as above
E57 [6] = patient-derived glioblastoma stem cells of mesenchymal subtype; assay: as above
FT3469 [7] = normal neural stem cell line; assay: as above
E13 [8] = assay: phenotypic distance (Euclidean, principal components) from DMSO controls (arbitrary units); higher = stronger morphological change
E21 [9] = assay: as above
E28 [10] = assay: as above
E31 [11] = assay: as above
E34 [12] = assay: as above
E57 [13] = assay: as above
FT3469 [14] = assay: as above
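Throughout, for phenotypic distance (Euclidean, principal components) from DMSO controls: cell Painting imaging in 384-well plates, CellProfiler features reduced to at least 20 principal components, Euclidean distance versus same-plate DMSO vehicle wells (0.1% v/v), median over six images per well.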
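Throughout, for surviving fraction (nuclei count normalised to DMSO): nuclei counted by high-content imaging of Hoechst-stained cells in laminin-coated 384-well plates, relative to 0.1% DMSO vehicle wells, with staurosporine as cell-death control.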

COc1cc(OC)c(C(=O)CCCN2CCCC2)c(OC)c1 [Buflomedil hydrochloride]
Conditions	phenotypic distance	surviving fraction
E13 [1], 4.1 nM	–	0.886
E13 [1], 12.3 nM	–	1.12
E13 [1], 37 nM	–	1.19
E13 [1], 111.1 nM	–	1.13
E13 [1], 333.3 nM	–	1.01
E13 [1], 1000 nM	–	1.17
E13 [1], 3000 nM	–	0.944
E13 [8], 4.1 nM	0.727	–
E13 [8], 12.3 nM	0.83	–
E13 [8], 37 nM	0.928	–
E13 [8], 111.1 nM	0.845	–
E13 [8], 333.3 nM	0.564	–
E13 [8], 1000 nM	0.536	–
E13 [8], 3000 nM	0.71	–
E21 [2], 4.1 nM	–	1.05
E21 [2], 12.3 nM	–	1.06
E21 [2], 37 nM	–	1.02
E21 [2], 111.1 nM	–	1.12
E21 [2], 333.3 nM	–	1.13
E21 [2], 1000 nM	–	1.12
E21 [2], 3000 nM	–	0.927
E21 [9], 4.1 nM	0.617	–
E21 [9], 12.3 nM	0.741	–
E21 [9], 37 nM	0.582	–
E21 [9], 111.1 nM	0.712	–
E21 [9], 333.3 nM	0.706	–
E21 [9], 1000 nM	0.913	–
E21 [9], 3000 nM	0.567	–
E28 [3], 4.1 nM	–	1.16
E28 [3], 12.3 nM	–	1.19
E28 [3], 37 nM	–	0.856
E28 [3], 111.1 nM	–	1.21
E28 [3], 333.3 nM	–	1.1
E28 [3], 1000 nM	–	1.16
E28 [3], 3000 nM	–	0.677
E28 [10], 4.1 nM	0.701	–
E28 [10], 12.3 nM	0.827	–
E28 [10], 37 nM	0.611	–
E28 [10], 111.1 nM	0.817	–
E28 [10], 333.3 nM	0.347	–
E28 [10], 1000 nM	0.489	–
E28 [10], 3000 nM	0.878	–
E31 [4], 4.1 nM	–	0.968
E31 [4], 12.3 nM	–	0.998
E31 [4], 37 nM	–	1.23
E31 [4], 111.1 nM	–	1.03
E31 [4], 333.3 nM	–	1.2
E31 [4], 1000 nM	–	1.04
E31 [4], 3000 nM	–	1.02
E31 [11], 4.1 nM	0.629	–
E31 [11], 12.3 nM	0.47	–
E31 [11], 37 nM	0.918	–
E31 [11], 111.1 nM	0.593	–
E31 [11], 333.3 nM	0.443	–
E31 [11], 1000 nM	0.577	–
E31 [11], 3000 nM	0.55	–
E34 [5], 4.1 nM	–	0.963
E34 [5], 12.3 nM	–	1.03
E34 [5], 37 nM	–	1.02
E34 [5], 111.1 nM	–	1.11
E34 [5], 333.3 nM	–	1.02
E34 [5], 1000 nM	–	1.22
E34 [5], 3000 nM	–	0.991
E34 [12], 4.1 nM	0.771	–
E34 [12], 12.3 nM	0.727	–
E34 [12], 37 nM	0.358	–
E34 [12], 111.1 nM	1.11	–
E34 [12], 333.3 nM	0.684	–
E34 [12], 1000 nM	0.961	–
E34 [12], 3000 nM	0.717	–
E57 [6], 4.1 nM	–	1.06
E57 [6], 12.3 nM	–	1.03
E57 [6], 37 nM	–	0.98
E57 [6], 111.1 nM	–	1.02
E57 [6], 333.3 nM	–	1.04
E57 [6], 1000 nM	–	0.994
E57 [6], 3000 nM	–	0.9
E57 [13], 4.1 nM	0.802	–
E57 [13], 12.3 nM	1.18	–
E57 [13], 37 nM	4.02	–
E57 [13], 111.1 nM	0.575	–
E57 [13], 333.3 nM	0.903	–
E57 [13], 1000 nM	0.71	–
E57 [13], 3000 nM	0.526	–
FT3469 [7], 4.1 nM	–	0.947
FT3469 [7], 12.3 nM	–	1.27
FT3469 [7], 37 nM	–	1.15
FT3469 [7], 111.1 nM	–	1
FT3469 [7], 333.3 nM	–	1.03
FT3469 [7], 1000 nM	–	1.1
FT3469 [7], 3000 nM	–	0.993
FT3469 [14], 4.1 nM	0.468	–
FT3469 [14], 12.3 nM	4.94	–
FT3469 [14], 37 nM	1.05	–
FT3469 [14], 111.1 nM	0.796	–
FT3469 [14], 333.3 nM	0.368	–
FT3469 [14], 1000 nM	0.514	–
FT3469 [14], 3000 nM	1.05	–
